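Grown in 96-well plates, cells were treated for 48 hours with each compound at five concentrations. Insufficient inhibition: endpoint recorded as highest concentration tested. At the TGI there is no net growth.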
Assays:
Experiment in all cases: NCI anticancer screen, dose series, 48 h
786-0 renal = system: 786-0 renal
A498 renal = system: A498 renal
A549 NSCLC = system: A549 NSCLC
ACHN renal = system: ACHN renal
BT-549 breast = system: BT-549 breast
CAKI-1 renal = system: CAKI-1 renal
CCRF-CEM leukemia = system: CCRF-CEM leukemia
COLO 205 colon = system: COLO 205 colon
DU-145 prostate = system: DU-145 prostate
EKVX NSCLC = system: EKVX NSCLC
HCT-116 colon = system: HCT-116 colon
HCT-15 colon = system: HCT-15 colon
HL-60(TB) leukemia = system: HL-60(TB) leukemia
HOP-62 NSCLC = system: HOP-62 NSCLC
HOP-92 NSCLC = system: HOP-92 NSCLC
HS 578T breast = system: HS 578T breast
HT29 colon = system: HT29 colon
IGROV1 ovarian = system: IGROV1 ovarian
K-562 leukemia = system: K-562 leukemia
KM12 colon = system: KM12 colon
LOX IMVI melanoma = system: LOX IMVI melanoma
M14 melanoma = system: M14 melanoma
MALME-3M melanoma = system: MALME-3M melanoma
MDA-MB-231 breast = system: MDA-MB-231 breast
MDA-MB-435 = system: MDA-MB-435
MDA-N = system: MDA-N
MOLT-4 leukemia = system: MOLT-4 leukemia
NCI-H226 lung = system: NCI-H226 lung
NCI-H23 lung = system: NCI-H23 lung
NCI-H460 lung = system: NCI-H460 lung
NCI-H522 lung = system: NCI-H522 lung
NCI/ADR-RES ovarian = system: NCI/ADR-RES ovarian
OVCAR-3 ovarian = system: OVCAR-3 ovarian
OVCAR-4 ovarian = system: OVCAR-4 ovarian
OVCAR-5 ovarian = system: OVCAR-5 ovarian
OVCAR-8 ovarian = system: OVCAR-8 ovarian
PC-3 prostate = system: PC-3 prostate
RPMI-8226 leukemia = system: RPMI-8226 leukemia
RXF 393 renal = system: RXF 393 renal
SF-268 CNS = system: SF-268 CNS
SF-295 CNS = system: SF-295 CNS
SF-539 CNS = system: SF-539 CNS
SK-MEL-2 melanoma = system: SK-MEL-2 melanoma
SK-MEL-28 melanoma = system: SK-MEL-28 melanoma
SK-MEL-5 melanoma = system: SK-MEL-5 melanoma
SK-OV-3 ovarian = system: SK-OV-3 ovarian
SN12C renal = system: SN12C renal
SNB-19 CNS = system: SNB-19 CNS
SNB-75 CNS = system: SNB-75 CNS
SW-620 colon = system: SW-620 colon
T-47D breast = system: T-47D breast
TK-10 renal = system: TK-10 renal
U251 CNS = system: U251 CNS
UACC-257 melanoma = system: UACC-257 melanoma
UO-31 renal = system: UO-31 renal
HCC-2998 colon = system: HCC-2998 colon
SR leukemia = system: SR leukemia
UACC-62 melanoma = system: UACC-62 melanoma

`CN1C2CCC1CN(CCOC(c1ccc(F)cc1)c1ccc(F)cc1)C2` was tested, and the TGI (786-0 renal) was 40 µM, the TGI (A498 renal) was 86 µM and the TGI (A549 NSCLC) was greater than 100 µM. The TGI (ACHN renal) was greater than 100 µM, the TGI (BT-549 breast) was greater than 100 µM and the TGI (CAKI-1 renal) was greater than 100 µM. It also gave a TGI (CCRF-CEM leukemia) greater than 100 µM, a TGI (COLO 205 colon) of 33.8 µM and a TGI (DU-145 prostate) greater than 100 µM. For the same molecule, the TGI (EKVX NSCLC) was greater than 100 µM, the TGI (HCT-116 colon) was 44.8 µM and the TGI (HCT-15 colon) was greater than 100 µM. For the same molecule, the TGI (HL-60(TB) leukemia) was 31.3 µM, the TGI (HOP-62 NSCLC) was 59.3 µM and the TGI (HOP-92 NSCLC) was 93.9 µM. The TGI (HS 578T breast) was greater than 100 µM, the TGI (HT29 colon) was 73.7 µM and the TGI (IGROV1 ovarian) was greater than 100 µM. It also gave a TGI (K-562 leukemia) of 62.6 µM, a TGI (KM12 colon) of 49.5 µM and a TGI (LOX IMVI melanoma) of 39.1 µM. The TGI (M14 melanoma) was 38.8 µM, the TGI (MALME-3M melanoma) was 32.5 µM and the TGI (MDA-MB-231 breast) was 58.5 µM. It also gave a TGI (MDA-MB-435) of 63.7 µM, a TGI (MDA-N) greater than 100 µM and a TGI (MOLT-4 leukemia) of 83.7 µM. The TGI (NCI-H226 lung) was greater than 100 µM, the TGI (NCI-H23 lung) was greater than 100 µM and the TGI (NCI-H460 lung) was 60.6 µM. The TGI (NCI-H522 lung) was greater than 100 µM, the TGI (NCI/ADR-RES ovarian) was greater than 100 µM and the TGI (OVCAR-3 ovarian) was greater than 100 µM. It also gave a TGI (OVCAR-4 ovarian) greater than 100 µM, a TGI (OVCAR-5 ovarian) greater than 100 µM and a TGI (OVCAR-8 ovarian) greater than 100 µM. The TGI (PC-3 prostate) was greater than 100 µM, the TGI (RPMI-8226 leukemia) was 55.9 µM and the TGI (RXF 393 renal) was 43 µM. For the same molecule, the TGI (SF-268 CNS) was greater than 100 µM, the TGI (SF-295 CNS) was 39.1 µM and the TGI (SF-539 CNS) was 38 µM. For the same molecule, the TGI (SK-MEL-2 melanoma) was 56.3 µM, the TGI (SK-MEL-28 melanoma) was 30.1 µM and the TGI (SK-MEL-5 melanoma) was 27.8 µM. For the same molecule, the TGI (SK-OV-3 ovarian) was greater than 100 µM, the TGI (SN12C renal) was greater than 100 µM and the TGI (SNB-19 CNS) was greater than 100 µM. The TGI (SNB-75 CNS) was greater than 100 µM, the TGI (SW-620 colon) was 83.8 µM and the TGI (T-47D breast) was 76.6 µM. The TGI (TK-10 renal) was greater than 100 µM, the TGI (U251 CNS) was 78.9 µM and the TGI (UACC-257 melanoma) was 37.3 µM. It also gave a TGI (UO-31 renal) greater than 100 µM.

`CN(C)c1ccc(C(=O)NCCCCCCC(=O)NO)cc1` gave a TGI (786-0 renal) greater than 30.4 µM, a TGI (A498 renal) of 3.07 µM and a TGI (A549 NSCLC) of 10.9 µM. For the same molecule, the TGI (ACHN renal) was 5.45 µM, the TGI (BT-549 breast) was greater than 28.3 µM and the TGI (CAKI-1 renal) was 2.81 µM. The TGI (CCRF-CEM leukemia) was greater than 100 µM, the TGI (COLO 205 colon) was 0.832 µM and the TGI (EKVX NSCLC) was greater than 100 µM. For the same molecule, the TGI (HCC-2998 colon) was 1.48 µM, the TGI (HCT-116 colon) was 0.972 µM and the TGI (HCT-15 colon) was greater than 38.3 µM. The TGI (HL-60(TB) leukemia) was greater than 63.8 µM, the TGI (HOP-62 NSCLC) was 98.8 µM and the TGI (HS 578T breast) was greater than 23.8 µM. The TGI (HT29 colon) was greater than 32.5 µM, the TGI (IGROV1 ovarian) was 2.69 µM and the TGI (K-562 leukemia) was greater than 100 µM. The TGI (KM12 colon) was 35.4 µM, the TGI (LOX IMVI melanoma) was 1.51 µM and the TGI (M14 melanoma) was greater than 38 µM. It also gave a TGI (MALME-3M melanoma) greater than 100 µM, a TGI (MDA-MB-435) of 3.62 µM and a TGI (MDA-N) of 0.908 µM. The TGI (MOLT-4 leukemia) was greater than 100 µM, the TGI (NCI-H226 lung) was 17.8 µM and the TGI (NCI-H23 lung) was 3.66 µM. It also gave a TGI (NCI-H460 lung) of 5.21 µM, a TGI (NCI-H522 lung) of 0.739 µM and a TGI (NCI/ADR-RES ovarian) of 0.728 µM. The TGI (OVCAR-3 ovarian) was 4.38 µM, the TGI (OVCAR-4 ovarian) was greater than 25.3 µM and the TGI (OVCAR-5 ovarian) was 1.49 µM. The TGI (OVCAR-8 ovarian) was 2.46 µM, the TGI (RXF 393 renal) was 1.73 µM and the TGI (SF-268 CNS) was 6.26 µM. For the same molecule, the TGI (SF-295 CNS) was 1.82 µM, the TGI (SF-539 CNS) was greater than 53 µM and the TGI (SK-MEL-2 melanoma) was 0.932 µM. It also gave a TGI (SK-MEL-28 melanoma) of 13.9 µM, a TGI (SK-MEL-5 melanoma) of 1.39 µM and a TGI (SK-OV-3 ovarian) of 1.54 µM. It also gave a TGI (SN12C renal) of 2.03 µM, a TGI (SNB-19 CNS) greater than 100 µM and a TGI (SNB-75 CNS) of 2.2 µM. For the same molecule, the TGI (SR leukemia) was greater than 76 µM, the TGI (SW-620 colon) was greater than 21.5 µM and the TGI (T-47D breast) was 1.04 µM. It also gave a TGI (TK-10 renal) of 2.7 µM, a TGI (U251 CNS) of 3.64 µM and a TGI (UACC-257 melanoma) of 2.13 µM. The TGI (UACC-62 melanoma) was 1.37 µM and the TGI (UO-31 renal) was 5.2 µM.

Reference: PubChem BioAssay (NCI)
